Measured values published in US12577257B2, “Heterocyclic compounds” (Hoffmann-La Roche Inc., priority 2018, dated 2026).

biological target: T1, MAGL (recombinant wild-type) (Homo sapiens, UniProt Q99685); assay: 4-NPA assay: MAGL hydrolysis of 4-nitrophenylacetate, absorbance at 405 nm; format: biochemical; settings: footnote [b]: measured in 4-NPA assay
T1 sequence (Q99685 1-303): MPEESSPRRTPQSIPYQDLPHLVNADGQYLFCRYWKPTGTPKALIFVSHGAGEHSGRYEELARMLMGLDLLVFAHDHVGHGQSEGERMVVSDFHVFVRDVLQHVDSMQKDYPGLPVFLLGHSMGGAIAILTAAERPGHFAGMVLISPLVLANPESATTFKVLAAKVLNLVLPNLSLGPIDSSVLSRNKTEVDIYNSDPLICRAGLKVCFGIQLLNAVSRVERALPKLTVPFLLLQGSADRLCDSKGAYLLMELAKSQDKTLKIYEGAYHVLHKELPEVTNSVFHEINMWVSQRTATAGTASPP
Description: (§1) Compounds were profiled for MAGL inhibitory activity by measuring the enzymatic activity of MAGL by following the hydrolysis of 4-nitrophenylacetate resulting in 4-nitrophenol, which absorbs at 405-412 nm (G. G. Muccioli, G. Labar, D. M. Lambert, Chem. Bio. Chem. 2008, 9, 2704-2710). This assay is hereinafter abbreviated “4-NPA assay”.
(§2) The 4-NPA assay was carried out in 384 well assay plates (black with clear bottom, non-binding surface treated, Corning Ref. 3655) in a total volume of 40 μL. Compound dilutions were made in 100% DMSO (VWR Chemicals 23500.297) in a polypropylene plate in 3-fold dilution steps to give a final concentration range in the assay from 25 μM to 1.7 nM. 1 μL compound dilutions (100% DMSO) were added to 19 μL MAGL (recombinant wild-type) in assay buffer (50 mM TRIS (GIBCO, 15567-027), 1 mM EDTA (Fluka, 03690-100 ml)). The plate was shaked for 1 min at 2000 rpm (Variomag Teleshake) and then incubated for 15 min at RT. To start the reaction, 20 μL 4-Nitrophenylacetate (Sigma N-8130) in assay buffer with 6% EtOH was added. The final concentrations in the assay were 1 nM MAGL and 300 μM 4-Nitrophenylacetate. After shaking (1 min, 2000 rpm) and 5 min incubation at RT, the absorbance at 405 nm was measured for a first time (Molecular Devices, SpectraMax Paradigm). A second measurement was then done after incubation for 80 min at RT. From the two measurements, the slope was calculated by subtracting the first from the second measurement.

Row | IC50 | SMILES
1 | 2690 nM | O=C1CO[C@H]2CCN(C(=O)N3CCC4(C3)CN(C(c3ccccc3)c3ccccc3)C4)C[C@H]2N1 (racemic) [Example 20, rac-(4aR,8aS)-6-(2-Benzhydryl-2,6-diazaspiro[3.4]octane-6-carbonyl)hexahydro-2H-pyrido[4,3-b][1,4]oxazin-3(4H)-one]
2 | 836 nM | O=C1CO[C@H]2CCN(C(=O)N3CCC4(CC3)CN(S(=O)(=O)c3ccc(F)cc3)CCO4)C[C@H]2N1 (racemic) [Example 21, rac-(4aR,8aS)-6-(4-((4-Fluorophenyl)sulfonyl)-1-oxa-4,9-diazaspiro[5.5]undecane-9-carbonyl)hexahydro-2H-pyrido[4,3-b][1,4]oxazin-3(4H)-one]
3 | 539 nM | CC(C)(C)OC(=O)N1CC2(CCN(C(=O)N3CC[C@@H]4OCC(=O)N[C@@H]4C3)C2)C1 (racemic) [Int-1, rac-tert-Butyl 6-((4aR,8aS)-3-oxooctahydro-2H-pyrido[4,3-b][1,4]oxazine-6-carbonyl)-2,6-diazaspiro[3.4]octane-2-carboxylate]
4 | 599 nM | O=C1CO[C@H]2CCN(C(=O)N3CCC4(CC3)CN(S(=O)(=O)c3ccccc3)C4)C[C@H]2N1 [Example 39, (4aR,8aS)-6-(2-(Phenylsulfonyl)-2,7-diazaspiro[3.5]nonane-7-carbonyl)hexahydro-2H-pyrido[4,3-b][1,4]oxazin-3(4H)-one]

biological target: T2, MAGL (Homo sapiens, UniProt Q99685); assay: MAGL inhibition, Table 1 values with no assay marker (2-AG or 4-NPA assay not stated); format: biochemical; settings: not given
T2 sequence (Q99685 1-303): T1 sequence (Q99685 1-303)
Description: as §1, §2
Alternatively, compounds were profiled for MAGL inhibitory activity by determining the enzymatic activity by following the hydrolysis of the natural substrate 2-arachidonoylglycerol resulting in arachidonic acid, which can be followed by mass spectrometry. This assay is hereinafter abbreviated “2-AG assay”.
The 2-AG assay was carried out in 384 well assay plates (PP, Greiner Cat #784201) in a total volume of 20 μL. Compound dilutions were made in 100% DMSO (VWR Chemicals 23500.297) in a polypropylene plate in 3-fold dilution steps to give a final concentration range in the assay from 12.5 μM to […]. 0.25 μL compound dilutions (100% DMSO) were added to 9 μL MAGL in assay buffer (50 mM TRIS (GIBCO, 15567-027), 1 mM EDTA (Fluka, 03690-100 ml), 0.01% (v/v) Tween. After shaking, the plate was incubated for 15 min at RT. To start the reaction, 10 μL 2-arachidonoylglycerol in assay buffer was added. The final concentrations in the assay was […] and 8 μM 2-arachidonoylglycerol. After shaking and 30 min incubation at RT, the reaction was quenched by the addition of 40 μL of acetonitrile containing 4 μM of d8-arachidonic acid. The amount of arachidonic acid was traced by an online SPE system (Agilent Rapidfire) coupled to a triple quadrupole mass spectrometer (Agilent 6460). A C18 SPE cartridge (G9205A) was used in an acetonitrile/water liquid setup. The mass spectrometer was operated in negative electrospray mode following the mass transitions 303.1→259.1 for arachidonic acid and 311.1→267.0 for d8-arachidonic acid. The activity of the compounds was calculated based on the ratio of intensities [arachidonic acid/d8-arachidonic acid].

Row | IC50 | SMILES
5 | 67.1 nM | O=C1CO[C@H]2CCN(C(=O)N3CC4(CC(S(=O)(=O)c5ccc(F)cc5Cl)C4)C3)C[C@H]2N1 [Example 67, (4aR,8aS)-6-(6-((2-chloro-4-fluorophenyl)sulfonyl)-2-azaspiro[3.3]heptane-2-carbonyl)hexahydro-2H-pyrido[4,3-b][1,4]oxazin-3(4H)-one]
6 | 357 nM | O=C1CO[C@H]2CCN(C(=O)N3CC4(C3)CN(S(=O)(=O)c3ccc(C(F)(F)F)c(Cl)c3)C4)C[C@H]2N1 [Example 68, (4aR,8aS)-6-(6-((3-chloro-4-(trifluoromethyl)phenyl)sulfonyl)-2,6-diazaspiro[3.3]heptane-2-carbonyl)hexahydro-2H-pyrido[4,3-b][1,4]oxazin-3(4H)-one]
7 | 214 nM | O=C1CO[C@H]2CCN(C(=O)N3CC4(C3)CN(S(=O)(=O)c3ccc(C(F)(F)F)cc3C(F)(F)F)C4)C[C@H]2N1 [Example 69, (4aR,8aS)-6-(6-((2,4-bis(trifluoromethyl)phenyl)sulfonyl)-2,6-diazaspiro[3.3]heptane-2-carbonyl)hexahydro-2H-pyrido[4,3-b][1,4]oxazin-3(4H)-one]
8 | 0.1 nM | COc1cccc(F)c1CC1CC2(C1)CN(C(=O)N1CC[C@@H]3OCC(=O)N[C@@H]3C1)C2 [Example 71, (4aR,8aS)-6-(6-(2-fluoro-6-methoxybenzyl)-2-azaspiro[3.3]heptane-2-carbonyl)hexahydro-2H-pyrido[4,3-b][1,4]oxazin-3(4H)-one]
9 | 0.1 nM | O=C1CO[C@H]2CCN(C(=O)N3CC4(CC(Cc5c(O)cccc5F)C4)C3)C[C@H]2N1 [Example 73, (4aR,8aS)-6-(6-(2-fluoro-6-hydroxybenzyl)-2-azaspiro[3.3]heptane-2-carbonyl)hexahydro-2H-pyrido[4,3-b][1,4]oxazin-3(4H)-one]
10 | 0.5 nM | O=C1CO[C@H]2CCN(C(=O)N3CC4(CC(Cc5ccccc5O)C4)C3)C[C@H]2N1 [Example 74, (4aR,8aS)-6-(6-(2-hydroxybenzyl)-2-azaspiro[3.3]heptane-2-carbonyl)hexahydro-2H-pyrido[4,3-b][1,4]oxazin-3(4H)-one]
